The values that follow come from patent US5068247A, “2-aminopentanoic acid compounds and their use as immunosuppressants” (priority 1989, dated 1991).

Like-named read-outs stand apart in the source and are kept apart here.

This assay has as its system human allogenic MLR (human peripheral blood lymphocytes). The experiment in a line: human allogenic MLR-suppressive activity, 3H-thymidine uptake. Format: cell-based. The note with it: for suppressive activity in human allogenic MLR (in words): 1 to 0.0001 μg/ml; for inhibition at 0.0001 µg/mL / inhibition at 0.001 µg/mL / inhibition at 0.01 µg/mL / inhibition at 0.1 µg/mL / inhibition at 1 µg/mL: Homo sapiens, Lymphocyte, read-out: Suppression. On the procedure: The human allogenic MLR-suppressive activity was assayed as follows:
Human peripheral blood lymphocytes obtained by Ficoll-Paque density gradient centrifugation of normal human peripheral blood were suspended in the RPMI1640 culture medium supplemented with 10% FCS, placed in a plastic dish, and cultured in an atmosphere of 5% carbon dioxide and 95% air at 37° C. for 2 hours. After termination of culture, the supernatant after gentle pipetting was collected and centrifuged (1000 rpm, for 5 minutes) to obtain plastic-nonadherent cells. The plastic-nonadherent cells were allowed to pass through a nylon-wool column to give nylon-nonadherent cells, and the concentration of the cell suspension was adjusted to 4×10^6 cells/ml by using the RPMI1640 culture medium supplemented with 10% FCS, and used as the responder cell suspension.
The plastic-adherent cells were removed from the plastic dish by vigorous pipetting after addition of phosphate buffered saline (PBS) supplemented with 5% FCS and 0.02% disodium ethylenediaminetetraacetic acid (EDTA). The plastic-adherent cells were treated with 40 μg/ml of mitomycin C at 37° C. for 60 minutes, washed three times, and suspended to the concentration of 4×10^6 cells/ml in the RPMI1640 culture medium supplemented with 10% FCS. The resultant suspension was used as the stimulator cell suspension.
After termination of culture, 37 KBq/well of ^3 H-thymidine was added, and after 18 hours of culture, the cells were harvested by a cell-harvester. The radioactivity incorporated into the cells was measured by a liquid scintillation counter, which was used as an index of blastogenic response of lymphocytes in human allogenic MLR. The suppression of human allogenic MLR was evaluated by calculating the percent suppression by the following formula. [formula]

`CCCCCCC1(CCCCCC/C=C/C[C@@H](O)[C@H](O)[C@@](N)(CO)C(=O)O)SCCS1` [Example 3]: the “suppressive activity in human allogenic MLR (in words)” value is “exhibited suppressive activity in human allogenic MLR in a concentration-dependent manner”. For the same compound, under “0.0001 μg/ml, Donor A/Donor B”, the 3H-thymidine uptake was determined as 10700 cpm and the inhibition at 0.0001 µg/mL stood at 10.7%. Further, for the setting “0.0001 μg/ml, Donor C/Donor D”, the 3H-thymidine uptake was 18512 cpm and the inhibition at 0.0001 µg/mL was determined as 7.9%. For the same compound, under “0.001 μg/ml, Donor A/Donor B”, the 3H-thymidine uptake is 7285 cpm and the inhibition at 0.001 µg/mL came to 41.3%. For the setting “0.001 μg/ml, Donor C/Donor D”, the 3H-thymidine uptake is listed as 17138 cpm and the inhibition at 0.001 µg/mL was found to be 14.9%. Further, under “0.01 μg/ml, Donor A/Donor B”, the 3H-thymidine uptake stood at 7790 cpm and the inhibition at 0.01 µg/mL worked out at 36.8%. Where the note is “0.01 μg/ml, Donor C/Donor D”, the 3H-thymidine uptake is 15337 cpm and the inhibition at 0.01 µg/mL amounted to 24.1%. Moreover, for the setting “0.1 μg/ml, Donor A/Donor B”, the 3H-thymidine uptake turned out to be 6582 cpm and the inhibition at 0.1 µg/mL was 47.6%. In addition, where the note is “0.1 μg/ml, Donor C/Donor D”, the 3H-thymidine uptake was determined as 8187 cpm and the inhibition at 0.1 µg/mL came out at 60.5%. Also, for the setting “1 μg/ml, Donor A/Donor B”, the 3H-thymidine uptake came to 5909 cpm and the inhibition at 1 µg/mL was found to be 53.7%. Under “1 μg/ml, Donor C/Donor D”, the 3H-thymidine uptake was 5143 cpm and the inhibition at 1 µg/mL worked out at 76%.
Regarding `CCCCCCC(O)C=CCCCCC=CCC(O)C(O)C(N)(CO)C(=O)O` (stereo not shown) [Example 1], the “suppressive activity in human allogenic MLR (in words)” value is recorded as “exhibited suppressive activity in human allogenic MLR in a concentration-dependent manner”. Moreover, where the note is “0.0001 μg/ml, Donor C/Donor D”, the 3H-thymidine uptake came to 20334 cpm and the inhibition at 0.0001 µg/mL turned out to be 1.4%. For the same compound, where the note is “0.001 μg/ml, Donor A/Donor B”, the 3H-thymidine uptake came to 12137 cpm and the inhibition at 0.001 µg/mL worked out at 0%. Under “0.001 μg/ml, Donor C/Donor D”, the 3H-thymidine uptake worked out at 15284 cpm and the inhibition at 0.001 µg/mL worked out at 24.4%. For the setting “0.01 μg/ml, Donor A/Donor B”, the 3H-thymidine uptake came to 7479 cpm and the inhibition at 0.01 µg/mL was determined as 39.6%. Moreover, where the note is “0.01 μg/ml, Donor C/Donor D”, the 3H-thymidine uptake came out at 7232 cpm and the inhibition at 0.01 µg/mL amounted to 65.4%. Moreover, where the note is “0.1 μg/ml, Donor A/Donor B”, the 3H-thymidine uptake worked out at 5590 cpm and the inhibition at 0.1 µg/mL came to 56.5%. Moreover, where the note is “0.1 μg/ml, Donor C/Donor D”, the 3H-thymidine uptake was determined as 5292 cpm and the inhibition at 0.1 µg/mL turned out to be 75.3%. Moreover, under “1 μg/ml, Donor A/Donor B”, the 3H-thymidine uptake turned out to be 5613 cpm and the inhibition at 1 µg/mL was found to be 56.3%. Moreover, under “1 μg/ml, Donor C/Donor D”, the 3H-thymidine uptake came to 6689 cpm and the inhibition at 1 µg/mL stood at 68.2%.
